Assays:
COX-2 = target: T1, COX-2 (Homo sapiens, UniProt P35354); details: cited from earlier work
T1 sequence (P35354 18-604): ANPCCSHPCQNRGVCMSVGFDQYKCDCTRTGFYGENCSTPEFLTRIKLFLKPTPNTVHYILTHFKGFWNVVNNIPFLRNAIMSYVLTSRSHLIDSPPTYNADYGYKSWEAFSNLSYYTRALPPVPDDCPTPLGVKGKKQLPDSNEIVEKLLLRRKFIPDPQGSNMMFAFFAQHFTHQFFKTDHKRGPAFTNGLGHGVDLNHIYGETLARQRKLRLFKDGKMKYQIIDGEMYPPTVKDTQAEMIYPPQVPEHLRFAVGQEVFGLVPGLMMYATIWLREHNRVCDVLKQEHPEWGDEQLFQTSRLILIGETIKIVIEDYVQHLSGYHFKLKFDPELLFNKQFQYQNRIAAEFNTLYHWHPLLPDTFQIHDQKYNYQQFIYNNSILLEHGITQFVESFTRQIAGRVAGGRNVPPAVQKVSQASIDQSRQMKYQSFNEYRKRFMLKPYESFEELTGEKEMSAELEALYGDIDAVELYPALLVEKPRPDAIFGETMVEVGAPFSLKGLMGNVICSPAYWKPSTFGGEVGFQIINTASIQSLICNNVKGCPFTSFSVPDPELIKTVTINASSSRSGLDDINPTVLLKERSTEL

Dectin-1 [1] = target: T2, Dectin-1 (Mus musculus, UniProt Q6QLQ4); assay: Stimulation of Apc^Min/+ polyp-infiltrating leukocytes / CD11b+ cells with Curdlan, with or without laminarin pre-treatment, qPCR; type: cell-based; details: laminarin 4 hours before Curdlan, polyp-infiltrating leukocytes
T2 construct: CD11b^+ cells and CD11c^+ cells were purified from colorectal polyps with autoMACS; endogenous in cells; host or cells: primary CD11b+/CD11c+ cells or all polyp-infiltrating cells from colorectal/intestinal polyps of WT (C57BL/6J, AOM-DSS) or Apc^Min/+ mice
T2 sequence (Q6QLQ4 1-244): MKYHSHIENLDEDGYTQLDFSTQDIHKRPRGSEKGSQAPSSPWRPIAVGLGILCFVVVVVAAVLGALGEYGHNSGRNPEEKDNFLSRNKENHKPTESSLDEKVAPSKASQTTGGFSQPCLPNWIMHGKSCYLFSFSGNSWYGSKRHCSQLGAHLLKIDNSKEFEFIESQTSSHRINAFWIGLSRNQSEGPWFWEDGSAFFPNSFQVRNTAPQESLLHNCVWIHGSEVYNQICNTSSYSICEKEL
Protocol: (§1) FIG. 5f: All polyp-infiltrating cells of the Apc^Min/+ mice were collected, and were stimulated with Curdlan for 20 hours, and then the expression of the genes involved in the PGE2 synthesis was measured by qPCR. A laminarin treatment was performed for 4 hours before the Curdlan treatment.
as §1, with “5g: Purified CD11b^+” for “5f: All”, “treatment. The data in (FIGS. 5a to 5g) are representative of two independent experiments and expressed as mean±SD. *p<0.05, **p<0.01, and ***p<0.001.” for “treatment.”
Infiltrating cells in mouse/human colorectal tumor/non-tumor tissues (2×10^5) or mouse/human colorectal tumor/non-tumor tissue pieces (3 mm×3 mm cut) were cultured with Dectin-1 ligands Curdlan, OXCA, or laminarin, or with PGE2 stimulation for 20 h at 37° C. under 5% CO2 in 96-well flat-bottomed plates (Falcon, Becton Dickinson) in a volume of 0.2 ml RPMI containing 10% FBS and 1% streptomycin plus penicillin. After the culture, cells or tissues were collected and mRNA expression of tumor- or anti-tumor-associated genes was measured by qPCR described in Quantitative reverse transcription PCR section described later. […]

[2] = tested on: AOM-DSS-induced colorectal polyps; assay: AOM-3DSS colorectal tumor model, diet supplemented with 5% laminarin; type: in vivo, mouse
Protocol: FIG. 6a: Oral administration of laminarin suppresses tumor formation in the large intestine, and PGE2 administration promotes tumor formation. AOM was administered to C57BL/6J mice, and 5% by mass of laminarin-containing powdered food was administered (continued for 10 days/cycle) from 3 days before to the end of the one-week administration of DSS, for three cycles in total. At Week 11 from the first AOM administration, the mice were sacrificed and the generation of tumors in the large intestines was observed macroscopically (n=7/group).
FIG. 6b: AOM was administered to C57BL/6J mice, and 5% by mass of laminarin-containing powdered food was administered (continued for 10 days/cycle) from 3 days before to the end of the one-week administration of DSS, for three cycles in total. At Week 11 from the first AOM administration, the mice were sacrificed and the number of the colorectal polyps with indicated sizes was counted (n=7/group).
FIG. 6c: AOM was administered to C57BL/6J mice, and 5% by mass of laminarin-containing powdered food was administered (continued for 10 days/cycle) from 3 days before to the end of the one-week administration of DSS, for three cycles in total. The mice were sacrificed at Week 11 after the first AOM administration and the concentration of PGE2 in tissue homogenates was measured by the ELISA (n=7/group).
FIG. 6d: AOM was administered to C57BL/6J mice, and 5% by mass of laminarin-containing powdered food was administered (continued for 10 days/cycle) from 3 days before to the end of the one-week administration of DSS, for three cycles in total. The mice were sacrificed at Week 11 from the first AOM administration and an mRNA expression of CD11b (Itgam) was examined by qPCR (n=7/group). […]
Polyp and non-polyp tissues from mouse colon were harvested and were put into 2 ml tubes containing 500 μl lysis buffer for protein [RIPA buffer. […] After being centrifuged, supernatant of the tissue homogenate was collected and PGE2 concentration was measured by ELISA Development Kit for PGE2 (R&D systems, Minneapolis, USA). […]

Dectin-1 [3] = target: T2, Dectin-1; assay: Stimulation of mouse colorectal polyp CD11b+ and CD11c+ cells with OXCA, with or without laminarin pre-treatment, qPCR; type: cell-based; details: laminarin for 3 hours before OXCA 16 hours
Protocol: FIG. 2d: WT SPF mice were administered with AOM, followed by three cycles of DSS. After 11 weeks, the mice were sacrificed, and CD11b^+ cells and CD11c^+ cells were purified from colorectal polyps with autoMACS. The purified cells were stimulated with an agonistic β-glucan OXCA, or were treated with an antagonistic β-glucan laminarin for 3 hours followed by the stimulation with OXCA for 16 hours, and the expression of Il6 and Il1b was measured by qPCR. The data in (FIGS. 2a to 2d) are representative of two independent experiments, and the data in (FIGS. 2a, 2b, and 2d) are expressed as mean±SD. *p<0.05, **p<0.01, ***p<0.001, and ****p<0.0001.
FIG. 4h: C57BL/6J mice were administered with AOM, and were administered with DSS for three cycles. […] The cells were then stimulated with OXCA and expression of Il-22 bp was measured by qPCR. […] The data in (FIG. 4a and FIGS. 4d to 4h) are representative of two independent experiments, and the data in (FIGS. 4a, 4d, and 4f to 4h) are expressed as mean±SD. **p<0.01, ***p<0.001, and ****p<0.0001.
FIG. 11d: WT mice administered with AOM followed by DSS for three cycles for 12 weeks were sacrificed, and colon CD11b^+ and CD11c^+ myeloid-derived cells were purified by autoMACS. […] The data in (FIGS. 11a, 11c, and 11d) are expressed as mean±SD. *p<0.05, **p<0.01, and ***p<0.001. […]

CRC tumor tissues = assay: Human CRC tumor tissues cultured in the presence of PGE2, qPCR; type: cell-based
Protocol: FIG. 7i: Tumor tissues of CRC patients were collected, minced, and then cultured in the presence of PGE2 for 20 hours. Data are mean±SD of 3 wells. The data in (FIGS. 7g to 7i) are representative of two independent experiments. *p<0.05, **p<0.01, and ****p<0.0001.
(§2) Infiltrating cells in mouse/human colorectal tumor/non-tumor tissues (2×10^5) or mouse/human colorectal tumor/non-tumor tissue pieces (3 mm×3 mm cut) were cultured with Dectin-1 ligands Curdlan, OXCA, or laminarin, or with PGE2 stimulation for 20 h at 37° C. under 5% CO2 in 96-well flat-bottomed plates (Falcon, Becton Dickinson) in a volume of 0.2 ml RPMI containing 10% FBS and 1% streptomycin plus penicillin. After the culture, cells or tissues were collected and mRNA expression of tumor- or anti-tumor-associated genes was measured by qPCR described in Quantitative reverse transcription PCR section described later.
(§3) Total RNA was extracted with Mammalian Total RNA Miniprep kit (Sigma Aldrich). […]

[4] = tested on: intestinal polyp-infiltrating cells; assay: PGE2 stimulation of intestinal polyp-infiltrating cells of Apc^Min/+ mice, qPCR; type: cell-based, mouse; details: PGE2 20 hours
Protocol: FIG. 6i: Tumor-infiltrating cells of the Apc^Min/+ mice (n=2, cells that were pooled during collection) were collected, stimulated with indicated doses of PGE2 for 20 hours, and then the expression of indicated genes was measured by qPCR. The data are mean±SD of 3 wells.
as §2, §3

colorectal polyps = assay: PGE2 administration to DSS-treated Apc^Min/+Clec7a^-/- mice; type: in vivo, mouse
Protocol: (§4) FIG. 6e: 8-week-old Apc^Min/+Clec7a^−/− mice (n=3) were administered with 2% by mass of DSS for 1 week, and then were administered with PGE2 ([…]) or PBS intraperitoneally every other day for 4 weeks. After euthanization, generation of colorectal polyps in the Apc^Min/+Clec7a^−/− mice with or without PGE2 treatment was examined in comparison to that of the Apc^Min/+ mice (n=3/group).
as §4, with “6f:” for “6e:”, “without the” for “without”
FIG. 6g: 8-week-old Apc^Min/+Clec7a^−/− mice (n=3) were administered with 2% by mass of DSS for 1 week, and then were administered with PGE2 ([…]) or PBS intraperitoneally every other day for 4 weeks. After euthanization, populations of MHC-II^+CD11c^+DCs and MHC-II^−CD11b^+MDSCs in the polyps in the Apc^Min/+Clec7a^−/− mice were measured by flow cytometry (n=3/group).
FIG. 6h: 8-week-old Apc^Min/+Clec7a^−/− mice (n=3) were administered with 2% by mass of DSS for 1 week, and then administered with PGE2 ([…]) or PBS intraperitoneally every other day for 4 weeks. After euthanization, expression of indicated genes in the Apc^Min/+Clec7a^−/− mice was examined by qPCR (n=3/group).
Apc^Min/+ or Apc^Min/+Clec7a^−/− mice were normally raised in SPF condition for 19 to 21 weeks after being born, and polyps in small intestines emerged spontaneously. For the induction of colorectal tumor, same mice with 6 to 7 weeks old were treated with 1% by mass DSS for 1 week, and then were normally raised for another 4 to 5 weeks before sacrifice.

[5] = after PGE2 administration, flow cytometry
[6] = after PGE2 administration, qPCR

CC(=O)Oc1ccccc1C(=O)O [aspirin]
occurrence or progression of colorectal cancer and polyps (COX-2): can reduce

Laminarin
effect on Curdlan-induced Ptges3, Ptgs1 and Ptgs2 expression (Dectin-1 [1]): inhibited | burden of colorectal polyps versus control mice ([2]; 5% laminarin diet during 3 cycles of DSS, WT mice, AOM-3DSS): significantly lower | intestinal PGE2 production (tissue homogenate, ELISA) ([2]; 5% laminarin diet, AOM-3DSS mice): suppressed | CD11b (Itgam) expression ([2]; 5% laminarin diet, AOM-3DSS mice, qPCR): reduction | effect on OXCA-induced Il6 and Il1b expression (Dectin-1 [3]): inhibited

CCCCC[C@H](O)/C=C/[C@H]1[C@H](O)CC(=O)[C@@H]1C/C=C\CCCC(=O)O [PGE2, prostaglandin E2]
expression of CD33 and CD11B (ITGAM) (CRC tumor tissues; PGE2 20 hours in vitro): directly induced | human IL-22BP expression (CRC tumor tissues; PGE2 20 hours, dose-dependent): suppressed | Il-22 bp expression [4]: directly inhibited | expression of MDSC markers Arg1, CD11b and Nos2 [4]: directly induced | polyp number (colorectal polyps; PGE2 intraperitoneally every other day for 4 weeks, DSS-treated Apc^Min/+Clec7a^-/- mice): increased to the similar level of that in Apc^Min/+ mice | infiltration of CD11b+ MDSCs in polyps (colorectal polyps; [5]): promoted | infiltration of CD11c+ DCs and T cells in polyps (colorectal polyps; [5]): suppressed | Il-22 bp expression (colorectal polyps; [6]): suppressed | expression of CD11b (Itgam), Arginase-1 (Arg1), Cyclin D1 (Ccnd1) and c-Myc (Myc) (colorectal polyps; [6]): enhanced

— US20250057873A1, “Intestinal Tumor Suppressor, PGE2 Production Inhibitor, and IL-22BP Production Promoter” (TOKYO UNIVERSITY OF SCIENCE FOUNDATION, priority 2021, published 2025)
